Tests used:
[1] = system: HIV-1; assay: anti-HIV-1 activity, National Cancer Institute (Weislow) protocol; format: cell-based; conditions: for IC50: IC50 beside EC50 and TI50 (not further defined in the patent); for Act.: activity class as per the NCI protocol
[2] = Human immunodeficiency virus 1, NCI Weislow protocol

Compound	melting point [°C]	IC50 [1, 2] [µM]	Act. [1]	IC50 ([1]; NCI Weislow protocol) [µM]	TI50 ([1]; NCI Weislow protocol, therapeutic index column)	EC50 ([1]; anti-HIV-1 activity, NCI Weislow protocol) [µM]
CN1[C@@H](c2ccc(O)cc2)c2ccccc2S1(=O)=O [Compound 21, (+)-4-[(3S)-2-Methyl-1,1-dioxo-2,3-dihydrobenzo[d]isothiazol-3-yl]phenol]	178 to 180	> 200	I			
CN1[C@H](c2ccc(O)cc2)c2ccccc2S1(=O)=O [Compound 22, (−)-4-[(3R)-2-Methyl-1,1-dioxo-2,3-dihydrobenzo-[d]-isothiazol-3-yl]phenol]	178 to 179	> 200	I			
(R,S)-2,5-Dimethyl-3-phenyl-2,3-dihydrobenzo[d]isothiazole 1,1-dioxide [Compound 47]				156	5.03	31
(R,S)-4-(2-Methyl-1,1-dioxo-2,3-dihydrobenzo[d]isothiazol-3-yl)phenol [Compound 20]			I	> 200		

Reference: patent US6562850B1, “Methods of synthesizing sultams and anti-viral compositions” (The University of Tennessee Research Corporation, priority 1998, dated 2003)
